Ten compounds from patent publication US8907089B2, “Fused heterocyclic ring derivative and use thereof” (Takeda Pharmaceutical Company Limited, priority 2009, dated 2014) can be followed below.

The subject of this assay is NIH-3T3/Gli reporter cells (Hedgehog signal, Gli reporter luciferase; Smo inhibitory action). The assay is described as follows: Gli reporter luciferase assay in NIH-3T3/Gli reporter cells stimulated with mouse Shh-N end fragment. The note with it: NIH3T3; 1 μM compound; NIH-3T3/Gli reporter cells with mouse Shh-N end fragment culture supernatant, 48 hr; luciferase activity, control without compound as 100; read-out: inhibition rate (%) at 1 μM. The assay is classed as cell-based. The text has this: Inhibition of the Hedgehog signal transduction system can be measured, for example, by quantifying a decrease in the expression level of a reporter gene connected to the downstream of the Gli binding site based on the fluorescence intensity according to the following Experimental Example 1. Alternatively, it can be measured by quantifying the expression of Gli-1 mRNA in a cell extract by quantitative PCR method and the like. A compound that inhibits Hedgehog signal targets Smo, which can be confirmed, for example, by binding fluorescence-labeled Cyclopamine and a test compound to cells expressing Smo, measuring the fluorescence level of the cell, and comparing the value with that without addition of a test compound to find a decrease.
Gli reporter plasmid was constructed by inserting 8×Gli-binding site and chicken 8-crystalline promoter into the upstream of luc+ of pGL3 (Promega).
prepared in reference to the base sequence described in GenBank accession No.; X02187, and chicken genome DNA (Clontech) as a template. PCR reaction was performed using Pfu Turbo (Stratagene) and following the attached protocol. The obtained 108 bp fragment was digested with restriction enzymes BglII and HindIII, and inserted into BglII-HindIII site of pGL3 to give plasmid pGL3/δ-cry promoter.
As 8×Gli-binding site, a sequence containing eight 9-bp Gli bound consensus sequences (GACCACCCA) described in Yoon et al., J. Biol. Chem., vol. 273, pages 3496-3501 (1998) was prepared from synthetic DNA. That is, two synthetic DNAs,
were heat treated at 95° C. for 2 minutes, and incubated at 37° C. for 1 hr for annealing to give a double stranded DNA of the above-mentioned two synthetic DNAs. The obtained double stranded DNA was digested with restriction enzymes BglII and KpnI, and the obtained DNA fragment was inserted into BglII-KpnI site of pGL3/8-cry promoter to construct plasmid pGL3/8-cry promoter, 8×Gli binding site, i.e., Gli reporter plasmid. 2. Construction of plasmid for expression of mouse Shh-N end Fragment
HEK293 cells were grown in D-MEM medium (Invitrogen) containing 10% fetal bovine serum in a 10 cm dish and pcDNA3.1/mShh-N was introduced into the cells using FuGENE6 (Roche Applied Science). Thereafter, the HEK293 cells were cultured in a carbon dioxide gas incubator at 37° C. for 24 hours, and the medium was exchanged with D-MEM medium (Invitrogen) containing 2% fetal bovine serum. After culturing for 48 hr, a culture supernatant containing recombinant type mouse Shh-N end fragment was obtained by filtration using a filter ([…]).
Using D-MEM (Invitrogen) containing 10% fetal bovine serum, expression plasmid pcDNA3.1 and Gli reporter plasmid (pGL3/8-cry promoter, 8×Gli binding site) produced by the method of Experimental Example 1 were introduced into NIH-3T3 cells grown in a 10 cm dish by the use of FuGENE6 (Roche Applied Science).
After culture for 24 hr, the cells were recovered, suspended in D-MEM medium containing 10% fetal bovine serum and supplemented with Geneticin (Life Technologies Oriental, Inc.) to a final concentration of 500 μg/ml, diluted to 10^4 cells/ml, plated on a 96 well plate, and cultured in a carbon dioxide gas incubator at 37° C. to give Geneticin resistant transformed cell line.
The obtained transformed cell line was cultured in a 96 well plate, mouse Shh-N end fragment obtained in Experimental Example 3 was added, and NIH-3T3/Gli reporter cell, which is a cell line capable of induction of luciferase expression, was selected.
NIH-3T3/Gli reporter cells cultured in D-MEM (Invitrogen) containing 10% fetal bovine serum were plated in a 96 well white plate at 1×10^4 cells/well, and cultured overnight in a carbon dioxide gas incubator at 37° C. The medium was removed, a compound (50 μl) and culture supernatant of mouse Shh-N end fragment-expressing HEK293 (D-MEM medium containing 2% fetal bovine serum, 50 μl) were added, and the cells were cultured for 48 hr in a carbon dioxide gas incubator at 37° C. […]
With `CCc1cc2c(c(OCC(F)(F)F)c(C(=O)NC3CCN(C(=O)CO)CC3)n2C)c(=O)n1-c1ccccc1` [Example 1, 6-ethyl-N-[1-(hydroxyacetyl)piperidin-4-yl]-1-methyl-4-oxo-5-phenyl-3-(2,2,2-trifluoroethoxy)-4,5-dihydro-1H-pyrrolo[3,2-c]pyridine-2-carboxamide], the inhibition (commonly the change of the read-out against control, counted positive when it falls) at 1 µM turned out to be 98%.

`CCc1cc2c(c(OC(C)C)c(C(=O)NC3CCN(C(=O)CO)CC3)n2C)c(=O)n1-c1ccc(C(F)(F)F)cc1` [Example 11, 6-ethyl-N-[1-(hydroxyacetyl)piperidin-4-yl]-1-methyl-3-(1-methylethoxy)-4-oxo-5-[4-(trifluoromethyl)phenyl]-4,5-dihydro-1H-pyrrolo[3,2-c]pyridine-2-carboxamide]: the inhibition at 1 µM is 96%.

As to `CCc1cc2c(c(OC(C)C)c(C(=O)NC3CCN(C(=O)CO)CC3)n2C)c(=O)n1-c1ccc(OC)cc1` [Example 14, 6-ethyl-N-[1-(hydroxyacetyl)piperidin-4-yl]-5-(4-methoxyphenyl)-1-methyl-3-(1-methylethoxy)-4-oxo-4,5-dihydro-1H-pyrrolo[3,2-c]pyridine-2-carboxamide], the inhibition at 1 µM was determined as 96%.

In the case of `CCOc1c(C(=O)NC2CCN(C(=O)CO)CC2)n(C)c2cc(CC)n(-c3ccc(C(F)(F)F)cc3)c(=O)c12` [Example 10, 3-ethoxy-6-ethyl-N-[1-(hydroxyacetyl)piperidin-4-yl]-1-methyl-4-oxo-5-[4-(trifluoromethyl)phenyl]-4,5-dihydro-1H-pyrrolo[3,2-c]pyridine-2-carboxamide], the inhibition at 1 µM is 96%.

As to `CCc1cc2c(c(OC(C)C)c(C(=O)NC3CCN(C(=O)CO)CC3)n2C)c(=O)n1-c1ccccc1` [Example 4, 6-ethyl-N-[1-(hydroxyacetyl)piperidin-4-yl]-1-methyl-3-(1-methylethoxy)-4-oxo-5-phenyl-4,5-dihydro-1H-pyrrolo[3,2-c]pyridine-2-carboxamide], the inhibition at 1 µM worked out at 97%.

For `CCOc1c(C(=O)NC2CCN(C(=O)CO)CC2)n(C)c2cc(CC)n(-c3ccc(F)cc3)c(=O)c12` [Example 21, 3-ethoxy-6-ethyl-5-(4-fluorophenyl)-N-[1-(hydroxyacetyl)piperidin-4-yl]-1-methyl-4-oxo-4,5-dihydro-1H-pyrrolo[3,2-c]pyridine-2-carboxamide], the inhibition at 1 µM is 96%.

Consider `CCOc1c(C(=O)NC2CCN(C(=O)CO)CC2)n(C)c2cc(CC)n(-c3cccc(F)c3)c(=O)c12` [Example 16, 3-ethoxy-6-ethyl-5-(3-fluorophenyl)-N-[1-(hydroxyacetyl)piperidin-4-yl]-1-methyl-4-oxo-4,5-dihydro-1H-pyrrolo[3,2-c]pyridine-2-carboxamide], for which the inhibition at 1 µM was found to be 96%.

Consider `CCc1cc2c(c(OCC(F)(F)F)c(C(=O)NC3CCN(C(=O)CO)CC3)n2C)c(=O)n1-c1ccc(OC)cc1` [Example 12, 6-ethyl-N-[1-(hydroxyacetyl)piperidin-4-yl]-5-(4-methoxyphenyl)-1-methyl-4-oxo-3-(2,2,2-trifluoroethoxy)-4,5-dihydro-1H-pyrrolo[3,2-c]pyridine-2-carboxamide], for which the inhibition at 1 µM was 97%.

As for `CCc1cc2c(c(OC(C)C)c(C(=O)NC3CCN(C(=O)CO)CC3)n2C)c(=O)n1-c1cccc(F)c1` [Example 17, 6-ethyl-5-(3-fluorophenyl)-N-[1-(hydroxyacetyl)piperidin-4-yl]-1-methyl-3-(1-methylethoxy)-4-oxo-4,5-dihydro-1H-pyrrolo[3,2-c]pyridine-2-carboxamide], the inhibition at 1 µM is 95%.

With `CCOc1c(C(=O)NC2CCN(C(=O)CO)CC2)n(C)c2cc(CC)n(-c3ccc(OC)cc3)c(=O)c12` [Example 13, 3-ethoxy-6-ethyl-N-[1-(hydroxyacetyl)piperidin-4-yl]-5-(4-methoxyphenyl)-1-methyl-4-oxo-4,5-dihydro-1H-pyrrolo[3,2-c]pyridine-2-carboxamide], the inhibition at 1 µM is 97%.
